# Measured values as given in patent US12473304B2, “Heterocyclic PAD4 inhibitors” (BRISTOL-MYERS SQUIBB COMPANY, priority 2020, dated 2025).
# Biological target: human PAD4 (hPAD4) (Homo sapiens (Human), UniProt Q9UM07)
# Experiment: RFMS Human PAD4 Functional Assay 1
# Type: biochemical
# Conditions: RFMS assay 1; 5 nM hPAD4, 250 μM BAEE substrate, 50 μM calcium, 37° C.
# Outline: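 Citrullination product read by RapidFire triple-quad MRM against a modified-citrulline internal standard, after TCA stop and 30 min phenyl glyoxal step at 37 °C. Reaction: 250 μM BAEE, 5 nM human PAD4, 90 min at 37 °C, pH 7.5 HEPES buffer with 50 μM calcium and 5 μM TPEN, following 30 min compound–enzyme preincubation (max 50 μM).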
# human PAD4 (hPAD4), sequence (Q9UM07 whole entry): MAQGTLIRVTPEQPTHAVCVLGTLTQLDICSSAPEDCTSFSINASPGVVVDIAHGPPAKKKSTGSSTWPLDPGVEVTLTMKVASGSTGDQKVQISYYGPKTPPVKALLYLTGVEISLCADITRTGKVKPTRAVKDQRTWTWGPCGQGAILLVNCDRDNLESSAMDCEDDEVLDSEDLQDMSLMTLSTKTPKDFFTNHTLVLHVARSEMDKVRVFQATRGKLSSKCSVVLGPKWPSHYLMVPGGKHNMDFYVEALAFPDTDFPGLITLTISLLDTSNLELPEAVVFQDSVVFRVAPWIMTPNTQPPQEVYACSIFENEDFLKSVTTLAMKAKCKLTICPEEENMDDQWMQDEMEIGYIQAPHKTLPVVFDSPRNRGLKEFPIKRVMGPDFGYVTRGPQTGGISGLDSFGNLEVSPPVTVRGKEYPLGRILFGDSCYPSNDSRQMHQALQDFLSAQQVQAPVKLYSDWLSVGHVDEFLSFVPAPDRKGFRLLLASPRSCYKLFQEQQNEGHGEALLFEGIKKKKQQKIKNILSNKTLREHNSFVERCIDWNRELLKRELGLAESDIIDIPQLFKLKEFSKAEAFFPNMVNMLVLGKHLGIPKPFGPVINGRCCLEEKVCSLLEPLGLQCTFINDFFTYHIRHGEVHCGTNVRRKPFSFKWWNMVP
row,IC50 [nM],SMILES
1,70,"COc1cc(C(=O)N2C[C@H](N)C[C@@H](F)C2)cn2nc(-c3cc4ccc(N5CCC(N(C)C(C)=O)CC5)cc4n3CC3CC3)c(C)c12 [Example 244, N-[1-(2-{6-[(3R,5R)-3-Amino-5-fluoropiperidine-1-carbonyl]-4-methoxy-3-methylpyrazolo[1,5-a]pyridin-2-yl}-1-(cyclopropylmethyl)-1H-indol-6-yl)piperidin-4-yl]-N-methylacetamide]"
2,70,"COC(=O)N(C)C1CCN(c2ccc3cc(-c4nn5cc(C(=O)N6C[C@H](N)C[C@@H](F)C6)cc(OC)c5c4C)n(CC4CC4)c3c2)CC1 [Example 245, Methyl N-[1-(2-{6-[(3R,5R)-3-amino-5-fluoropiperidine-1-carbonyl]-4-methoxy-3-methylpyrazolo[1,5-a]pyridin-2-yl}-1-(cyclopropylmethyl)-1H-indol-6-yl)piperidin-4-yl]-N-methylcarbamate]"
3,130,"COc1cc(C(=O)N2C[C@H](N)C[C@@H](F)C2)cn2nc(-c3cc4ccc(N5CCC(N(C)S(C)(=O)=O)CC5)cc4n3CC3CC3)c(C)c12 [Example 246, N-[1-(2-{6-[(3R,5R)-3-Amino-5-fluoropiperidine-1-carbonyl]-4-methoxy-3-methylpyrazolo[1,5-a]pyridin-2-yl}-1-(cyclopropylmethyl)-1H-indol-6-yl)piperidin-4-yl]-N-methylmethanesulfonamide]"
4,120,"COc1cc(C(=O)N2C[C@H](N)C[C@@H](F)C2)cn2nc(-c3cc4ccc(N5CC(N(C)S(C)(=O)=O)C5)cc4n3CC3CC3)c(C)c12 [Example 247, N-[1-(2-{6-[(3R,5R)-3-Amino-5-fluoropiperidine-1-carbonyl]-4-methoxy-3-methylpyrazolo[1,5-a]pyridin-2-yl}-1-(cyclopropylmethyl)-1H-indol-6-yl)azetidin-3-yl]-N-methylmethanesulfonamide]"
5,60,"COc1cc(C(=O)N2CCC[C@@H](N)C2)cn2nc(-c3cc4ccc(N5CCC(S(C)(=O)=O)CC5)cc4n3CC3CC3)c(C)c12 [Example 248, (3R)-1-{2-[1-(Cyclopropylmethyl)-6-(4-methanesulfonylpiperidin-1-yl)-1H-indol-2-yl]-4-methoxy-3-methylpyrazolo[1,5-a]pyridine-6-carbonyl}piperidin-3-amine]"
6,80,"COc1cc(C(=O)N2CCC[C@@H](N)C2)cn2nc(-c3cc4ccc(N5CCC(OC)CC5)cc4n3CC3CC3)c(C)c12 [Example 249, (3R)-1-{2-[1-(Cyclopropylmethyl)-6-(4-methoxypiperidin-1-yl)-1H-indol-2-yl]-4-methoxy-3-methylpyrazolo[1,5-a]pyridine-6-carbonyl}piperidin-3-amine]"
7,90,"COc1cc(C(=O)N2CCC[C@@H](N)C2)cn2nc(-c3cc4ccc(N5CCC(CC(=O)N(C)C)CC5)cc4n3CC3CC3)c(C)c12 [Example 250, 2-[1-(2-{6-[(3R)-3-Aminopiperidine-1-carbonyl]-4-methoxy-3-methylpyrazolo[1,5-a]pyridin-2-yl}-1-(cyclopropylmethyl)-1H-indol-6-yl)piperidin-4-yl]-N,N-dimethylacetamide]"
8,180,"COc1cc(C(=O)N2CCC[C@@H](N)C2)cn2nc(-c3cc4ccc(N5CCC(C(=O)N6CC(OC)C6)CC5)cc4n3CC3CC3)c(C)c12 [Example 251, (3R)-1-{2-[1-(Cyclopropylmethyl)-6-[4-(3-methoxyazetidine-1-carbonyl)piperidin-1-yl]-1H-indol-2-yl]-4-methoxy-3-methylpyrazolo[1,5-a]pyridine-6-carbonyl}piperidin-3-amine]"
9,790,"COc1cc(C(=O)N2CCC[C@@H](N)C2)cn2nc(-c3cc4ccc(N5CCC(N(C)C(C)=O)CC5)cc4n3CC3CC3)c(C)c12 [Example 252, N-[1-(2-{6-[(3R)-3-Aminopiperidine-1-carbonyl]-4-methoxy-3-methylpyrazolo[1,5-a]pyridin-2-yl}-1-(cyclopropylmethyl)-1H-indol-6-yl)piperidin-4-yl]-N-methylacetamide]"
10,290,"COc1cc(C(=O)N2CCC[C@@H](N)C2)cn2nc(-c3cc4ccc(N5CCC(N(C)C(C)=O)CC5)cc4n3CC3CC3)c(C)c12 [Example 253, N-[1-(2-{6-[(3R)-3-Aminopiperidine-1-carbonyl]-4-methoxy-3-methylpyrazolo[1,5-a]pyridin-2-yl}-1-(cyclopropylmethyl)-1H-indol-6-yl)piperidin-4-yl]-N-methylacetamide]"
11,320,"COc1cc(C(=O)N2CCC[C@@H](N)C2)cn2nc(-c3cc4ccc(N5CCC(N(C)S(C)(=O)=O)CC5)cc4n3CC3CC3)c(C)c12 [Example 254, N-[1-(2-{6-[(3R)-3-Aminopiperidine-1-carbonyl]-4-methoxy-3-methylpyrazolo[1,5-a]pyridin-2-yl}-1-(cyclopropylmethyl)-1H-indol-6-yl)piperidin-4-yl]-N-methylmethanesulfonamide]"
12,250,"COC(=O)N(C)C1CCN(c2ccc3cc(-c4nn5cc(C(=O)N6CCC[C@@H](N)C6)cc(OC)c5c4C)n(CC4CC4)c3c2)CC1 [Example 255, Methyl N-[1-(2-{6-[(3R)-3-aminopiperidine-1-carbonyl]-4-methoxy-3-methylpyrazolo[1,5-a]pyridin-2-yl}-1-(cyclopropylmethyl)-1H-indol-6-yl)piperidin-4-yl]-N-methylcarbamate]"
13,330,"COc1cc(C(=O)N2CCC[C@@H](N)C2)cn2nc(-c3cc4ccc(N5CC(N(C)S(C)(=O)=O)C5)cc4n3CC3CC3)c(C)c12 [Example 256, N-[1-(2-{6-[(3R)-3-Aminopiperidine-1-carbonyl]-4-methoxy-3-methylpyrazolo[1,5-a]pyridin-2-yl}-1-(cyclopropylmethyl)-1H-indol-6-yl)azetidin-3-yl]-N-methylmethanesulfonamide]"
14,60,"Cc1c(-c2cc3ccc(-c4ccccc4N4CCNC4=O)nc3n2CC2CC2)nn2cc(C(=O)N3CC4CCC3[C@@H]4N)cc(F)c12 (stereo partly drawn) [Example 257, 1-[2-(2-{6-[(7R)-7-Amino-2-azabicyclo[2.2.1]heptane-2-carbonyl]-4-fluoro-3-methylpyrazolo[1,5-a]pyridin-2-yl}-1-(cyclopropylmethyl)-1H-pyrrolo[2,3-b]pyridin-6-yl)phenyl]imidazolidin-2-one]"
15,220,"Cc1c(-c2cc3ccc(-c4ccc(N5CCCC5=O)cc4)nc3n2CC2CC2)nn2cc(C(=O)N3CC4CCC3[C@@H]4N)cc(F)c12 (stereo partly drawn) [Example 258, 1-[4-(2-{6-[(7R)-7-Amino-2-azabicyclo[2.2.1]heptane-2-carbonyl]-4-fluoro-3-methylpyrazolo[1,5-a]pyridin-2-yl}-1-(cyclopropylmethyl)-1H-pyrrolo[2,3-b]pyridin-6-yl)phenyl]pyrrolidin-2-one]"
16,20,"Cc1c(O)cccc1-c1ccc2cc(-c3nn4cc(C(=O)N5CC6CCC5[C@@H]6N)cc(F)c4c3C)n(CC3CC3)c2n1 (stereo partly drawn) [Example 259, 3-(2-{6-[(7R)-7-Amino-2-azabicyclo[2.2.1]heptane-2-carbonyl]-4-fluoro-3-methylpyrazolo[1,5-a]pyridin-2-yl}-1-(cyclopropylmethyl)-1H-pyrrolo[2,3-b]pyridin-6-yl)-2-methylphenol]"
